From PMC12557438, “Thiadiazino-indole, thiadiazino-carbazole and benzothiadiazino-carbazole dioxides: synthesis, physicochemical and early ADME characterization of representatives of new tri-, tetra- and pentacyclic ring systems and their intermediates” (Beilstein Journal of Organic Chemistry, 2025)
Values after ≈ are worked out from the molar mass of the structure shown. Where two headings read alike, the source gives them in different places.

What was measured:
[1] = In vitro gastrointestinal permeability assay (GI PAMPA); assay type: in vitro ADME; details: for Papp at 4 h, 100 µM: PAMPA; for GI PAMPA membrane retention / GI PAMPA penetration: donor pH 6.5, acceptor pH 7.4, 1% DMSO, 37 °C, 4 hours, mean of 3 replicates; for GI PAMPA membrane retention (MR) in words / GI PAMPA permeability in words: wording of the text, outside the class key
Protocol: In vitro gastrointestinal permeability assay. […] The artificial membrane was fabricated by dissolving ʟ-α-phosphatidylcholine (16 mg) and cholesterol (4 mg) in a solvent mixture of chloroform, hexane and dodecane (5/70/25 vol %). Each well of the PAMPA donor plate (MAIPNTR, PVDF membrane, Merck KGaA, Darmstadt, Germany) was coated with 5 μL lipid solution. Thereafter the donor plate was fitted into the acceptor plate (MSSACCEPTOR, Merck KGaA, Darmstadt, Germany) already containing 300 μL PBS (pH 7.4) solutions with 1% DMSO. Finally, 150 μL of the initial solutions was pipetted into the donor plate, the plate sandwich was covered with a wet paper tissue and with a plate lid to avoid evaporation, and the system was incubated at 37 °C for 4 hours. Then samples were taken from the donor and acceptor wells and analyzed along with the initial solutions by HPLC.
[1] Pe=−2.303/A⋅(t−τss)⋅(1/1+ra)⋅lg[−ra+(1+ra/1−MR)⋅cD(t)/cD(0)]
[2] MR=1−cD(t)/cD(0)−VAcA(t)/VDcD(0)
where A is the filter area (0.24 cm^2), t is the incubation time (s), τss is the time to reach steady-state (s), ra is the sink asymmetry ratio approximated with a value of 10^−14, VD and VA are the volumes in the donor (0.15 mL) and the acceptor phase (0.3 mL), cD(t) is the concentration of the compound in the donor phase at time point t (mol/L), cD(0) is the concentration of the compound in the donor phase at time point zero (initial solutions, mol/L), cA(t) is the concentration of the compound in the acceptor phase at time point t (mol/L), cA(0) is the concentration of the compound in the acceptor phase at time point zero (mol/L).
(§1) Analytical methods. […] For a 7-minute long gradient program, eluents A (0.1% formic acid in water) and B (0.1% formic acid in acetonitrile) were used as follows: initial conditions with 30% B were kept for 1 minute, then 90% B was achieved within 3 minutes, kept for further 1 minute, finally the initial condition was adjusted and equilibrated for further 2 minutes. 5-Point calibration series were measured from each compound resulting in R^2 ≈ 0.9990–0.9999.

[2] = Metabolic stability assay in human liver microsome fractions; assay type: in vitro ADME; details: NADPH, 37 °C; for CLint scaled at 10 µM / half-life at 10 µM: pH 7.4, pooled human liver microsomes; for CLint scaled at 10 µM: read-out: HLM Clint (converted); for half-life at 10 µM: read-out: HLM t1/2
Protocol: Metabolic stability assay in human liver microsome fractions. The metabolic stability of the test compounds was assessed in vitro using pooled liver microsome fractions derived from humans (Xenotech LLC). The assay was conducted in a 96-well plate format according to a standardized protocol, utilizing cofactor-supplemented incubation systems, mainly to mimic phase I oxidative metabolic pathways. Human liver microsome (HLM) fractions were thawed on ice and diluted in 0.05 M potassium phosphate buffer (pH 7.4) to a final protein concentration of 1.25 mg/mL. Test compounds were dissolved in DMSO to create stock solutions of 5 mM. The drug concentration in the final assays was 10 μM. The assay was performed in triplicate. Reaction mixtures containing the diluted HLM fractions and test compounds were pre-incubated for 5 minutes at 37 °C while shaking at 450 rpm. The reaction was initiated by adding the 0.05 M NADPH cofactor mixture to the wells (100 µL per well) for the “with cofactors” conditions or by adding phosphate buffer for the “without cofactors” control. Aliquots (100 µL) were taken at zero time and at pre-defined time points of 30 and 60 minutes and quenched with an equal volume of cold acetonitrile. The samples were centrifuged at 2600 RCF for 10 minutes to pellet proteins. Supernatants were transferred to LC vials and stored at −20 °C until LC–MS/MS analysis. The concentration of the parent compound remaining in each sample was determined using liquid chromatography coupled with tandem mass spectrometry (LC–MS/MS). The percentage of the remaining substrate was calculated relative to the time-zero sample. The natural logarithm of the percentage remaining was plotted against incubation time to determine the first-order elimination rate constant (k) using linear regression. The half-life (t₁/₂) was calculated using Equation 4: […]
Intrinsic clearance (Clint) was calculated and scaled to in vivo conditions using Equation 5:
[5] Clint=ln2/t1/2×liver weight (g)/standard body weight (kg)×incubation volume (mL)/HLM protein/well×HLM protein (mg)/gram of liver
where the HLM protein per gram of liver was equal to 25 and the liver weight per standard body was equal to 49. Testosterone was included as a positive control to confirm metabolic competence of the HLM fractions, with and without cofactors.
HPLC–MS analysis. The semi-quantitative determination of test compounds was carried out using a Waters Xevo G2-XS QToF mass spectrometer equipped with an electrospray ionization (ESI) source operating in positive ion mode. Chromatographic separation was performed on a Waters XBridgeTM Premier BEH C18 (3.5 μm, 4.6 × 150 mm) column maintained at 40 °C. The mobile phase consisted of water with 0.1% formic acid (A) and acetonitrile with 0.1% formic acid (B). The injection volume was 10 µL. The autosampler was maintained at 5 °C. The gradient elution program shown in Table 4 was applied at a constant flow rate of 1.0 mL/min.
The mass spectrometer operated in sensitivity mode with a capillary voltage of 3.0 kV, source temperature was 100 °C, and desolvation temperature was 350 °C. The cone gas flow was set to 0 L/h and desolvation gas flow to 800 L/h. LockSpray calibration was performed using leucine enkephalin as the reference compound (m/z 556.2771), introduced at 15 µL/min. Data acquisition was performed in MSE mode with alternating low collision energy (6 eV) and ramped high-energy collision dissociation (20–40 eV). The mass range was set from 50 to 1200 Da. Each function used a scan time of 0.5 s. Data were acquired in the continuum mode. Instrument mass accuracy calibration was verified using sodium formate. The system was controlled with a MassLynx v4.2 SCN996 software.

[3] = Determination of the capacity factor (logk) by RP-HPLC; assay type: physicochemical; details: reversed-phase chromatographic capacity factor, eluent pH 7.0
Protocol: Determination of the capacity factor. […] The same analytical method was used with modified eluents: eluent A was 20 mM triethylamine with phosphoric acid (pH 7.0), and eluent B was acetonitrile without additives. The method time was slightly extended, with a 1-minute longer gradient, resulting in an 8-minute program. The capacity factor was calculated with Equation 3: […]
where k is the capacity factor, tR is the retention time (min) of the compounds and t0 is the dead-time of the column (min).

[4] = Kinetic aqueous solubility assay; assay type: physicochemical; set-up: key to Kinetic solubility (no value): –: Compounds with no value were under the detection limit; details: for solubility kinetic at 2 h: PBS buffer, pH 6.5, aqueous buffer, kinetic from dmso stock; for Kinetic solubility in words: wording of the text, outside the class key; for Kinetic solubility (no value): PBS pH 6.5, 2 hours, dash = under the detection limit
Protocol: Kinetic aqueous solubility assay. All compounds were dissolved in DMSO to make stock solutions at 10 mM concentration. […] 5 μL of the stock solutions was pipetted into a 96-well plate containing 495 μL PBS (pH 6.5) in each well to achieve 100 μM target concentration (1% DMSO). […] The plate was then sealed and shaken for 2 hours at room temperature. Each compound was investigated in 3 replicates. After 2 hours, the samples were filtered on a MultriscreenHTS filter plate (MSSLBPC, polycarbonate membrane, Merck KGaA, Darmstadt, Germany) by a Millipore Vacuum Manifold (Merck KGaA, Darmstadt, Germany). Before analyzing, 20 vol % acetonitrile was added to each well to avoid sample precipitation during HPLC analysis.
as §1

[5] = class in words, read-out: GI PAMPA permeability (Pe) category
[6] = colour key of Figure 5, read-out: Permeability category (Pe), colouring of Figure 5
[7] = scaled to in vivo conditions (Equation 5)
[8] = PBS pH 6.5, 100 µM target concentration (1% DMSO), 2 hours, room temperature, mean of 3 replicates, read-out: Kinetic solubility
[9] = class in words, read-out: Kinetic solubility category
[10] = PBS pH 6.5, 100 µM target concentration (1% DMSO), 2 hours, room temperature, mean of 3 replicates

Structure (SMILES)	GI PAMPA membrane retention [1] [%]	GI PAMPA penetration [1]	logk (−) pH 7.0 [3]	solubility kinetic at 2 h [4, 8] [µM]	further results
CC1=NN(C)S(=O)(=O)c2c(NN=C3CCCC3)cccc21 [Compound 7d]	93.3 ± 0.2	7.6 ± 2.9 10^−6 cm/s	0.599	46.9 ± 2.8 (≈ 14.4 µg/mL)	Papp at 4 h, 100 µM [1, 5]: < 10 ×10⁻⁶ cm/s; Papp at 4 h, 100 µM [1, 6]: < 10 ×10⁻⁶ cm/s; GI PAMPA membrane retention (MR) in words [1]: high; CLint scaled at 10 µM [2, 7]: 1.34 mL/h/kg; half-life at 10 µM ([2]; triplicate): 31 ± 3 min; solubility kinetic at 2 h [4, 9]: > 30 µM
CCC=NNc1cccc2c1S(=O)(=O)N(C)N=C2c1ccccc1 [crude 7h]			0.645	0.7 ± 0.02 (≈ 0.24 µg/mL)	
CC1=NN(C)S(=O)(=O)c2c1ccc1c3c([nH]c21)CCC3 [Compound 3d]			0.591	3.2 ± 0.2 (≈ 0.926 µg/mL)	
CC1=NN(C)S(=O)(=O)c2c1ccc1c(C)c[nH]c21 [Compound 3c]	39.8 ± 0.2	30.3 ± 4.2 10^−6 cm/s	0.567	41.4 ± 0.9 (≈ 10.9 µg/mL)	Papp at 4 h, 100 µM [1, 5]: > 10 ×10⁻⁶ cm/s; Papp at 4 h, 100 µM [1, 6]: > 10 ×10⁻⁶ cm/s; GI PAMPA membrane retention (MR) category ([1]; class in words): moderate (moderate under 80%); CLint scaled at 10 µM [2, 7]: 1.42 mL/h/kg; half-life at 10 µM ([2]; triplicate): 29 ± 2 min; solubility kinetic at 2 h [4, 9]: > 30 µM; Kinetic solubility in words [4]: moderate to good
Cc1[nH]c2c3c(ccc2c1C)C(c1ccccc1)=NN(C)S3(=O)=O [Compound 3f]			0.629	5 ± 0.3 (≈ 1.7 µg/mL)	
CCc1[nH]c2c3c(ccc2c1C)C(C)=NN(C)S3(=O)=O [Compound 3b]	98.5 ± 0.1	0.0 10^−6 cm/s	0.603	31 ± 2.2 (≈ 9.03 µg/mL)	GI PAMPA membrane retention (MR) category ([1]; class in words): extremely high (extremely high above 90%); GI PAMPA permeability in words [1]: nearly zero; solubility kinetic at 2 h [4, 9]: > 30 µM
CC1=NN(C)S(=O)(=O)c2c(NN=C3CCCCC3)cccc21 [Compound 7e, 8-(2-Cyclohexylidenehydrazino)-2,4-dimethyl-2H-1,2,3-benzothiadiazine 1,1-dioxide]	97.5 ± 0.3	0.0 10^−6 cm/s	0.626	86.3 ± 3.9 (≈ 27.7 µg/mL)	GI PAMPA membrane retention (MR) category ([1]; class in words): extremely high (extremely high above 90%); GI PAMPA permeability in words [1]: nearly zero; solubility kinetic at 2 h [4, 9]: > 30 µM
CC1=NN(C)S(=O)(=O)c2c1ccc1c3c([nH]c21)CCCC3 [Compound 3e, 2,4-Dimethyl-2,7,8,9,10,11-hexahydro[1,2,3]thiadiazino[6,5-a]carbazole 1,1-dioxide]	82.3 ± 0.8	7.1 ± 1.7 10^−6 cm/s	0.516	51.4 ± 1.3 (≈ 15.6 µg/mL)	Papp at 4 h, 100 µM [1, 5]: < 10 ×10⁻⁶ cm/s; Papp at 4 h, 100 µM [1, 6]: < 10 ×10⁻⁶ cm/s; GI PAMPA membrane retention (MR) in words [1]: high; half-life at 10 µM ([2]; triplicate): 100 ± 23 min; solubility kinetic at 2 h [4, 9]: > 30 µM
CC/C(C)=N/Nc1cccc2c1S(=O)(=O)N(C)N=C2C [(E)-7a]	61.0 ± 5.1	33.6 ± 3.0 10^−6 cm/s	0.547		GI PAMPA membrane retention (MR) category ([1]; class in words): moderate (moderate under 80%); GI PAMPA permeability (Pe) category ([1]; class in words): good (good above 10 × 10^−6 cm/s); HLM Clint ([2]; pooled human liver microsomes, 10 μM, scaled to in vivo conditions (Equation 5)): 1.2 ± 0.042 mL/h/kg; HLM t1/2 ([2]; pooled human liver microsomes, 10 μM, triplicate): 34 ± 1 min; Kinetic solubility [4, 10]: 20.5 ± 0.8 µM; Kinetic solubility in words [4]: moderate to good
CC1=NN(C)S(=O)(=O)c2c1ccc1c2[nH]c2c3ccccc3ccc12 [Compound 10a]			0.637		Kinetic solubility (no value) ([4]; room temperature): –
CN1N=C(c2ccccc2)c2ccc3c4c([nH]c3c2S1(=O)=O)CCC4 [Compound 3i]			0.645		Kinetic solubility [4, 10]: 1.7 ± 0.3 µM
CC1=NN(C)S(=O)(=O)c2c1ccc1c(C)c(C)[nH]c21 [Compound 3a]			0.580	1.5 ± 0.09 (≈ 0.416 µg/mL)	
CN1N=C(c2ccccc2)c2ccc3c4c([nH]c3c2S1(=O)=O)CCCC4 [Compound 3j]			0.660		Kinetic solubility (no value) ([4]; room temperature): –
Cc1c[nH]c2c3c(ccc12)C(c1ccccc1)=NN(C)S3(=O)=O [Compound 3h, 2,7-Dimethyl-4-phenyl-2,9-dihydro[1,2,3]thiadiazino[5,6-g]indole 1,1-dioxide]			0.614	8.6 ± 0.3 (≈ 2.8 µg/mL)	
CCC(CC)=NNc1cccc2c1S(=O)(=O)N(C)N=C2c1ccccc1 [Compound 7g]			0.677		Kinetic solubility (no value) ([4]; room temperature): –
CCC(CC)=NNc1cccc2c1S(=O)(=O)N(C)N=C2C [Compound 7b]			0.625		Kinetic solubility [4, 10]: 6.2 ± 0.3 µM
CN1N=C(c2ccccc2)c2ccc3c([nH]c4c5ccccc5ccc34)c2S1(=O)=O [Compound 10b]			0.685		Kinetic solubility (no value) ([4]; room temperature): –
